Laboratory results published in patent US20240366564A1, “Use of Chlorophyll Derivatives for the Treatment of SARS-CoV-2 Infection” (priority 2021, published 2024).
“Also recorded” adds a separate entry of the source. Like-named read-outs stand apart in the source and are kept apart here.

Experiments:
[1] = biological target: T1, binding of SARS-CoV-2 Spike protein (S1 subunit) to ACE2 (UniProt P0DTC2+Q9BYF1); experiment: biochemical
T1 construct: a fusion protein of the SARS-CoV-2 spike protein S1 subunit and the horseradish peroxidase (HRP) enzyme
T1 sequence (Q9BYF1 18-740, one chain of several): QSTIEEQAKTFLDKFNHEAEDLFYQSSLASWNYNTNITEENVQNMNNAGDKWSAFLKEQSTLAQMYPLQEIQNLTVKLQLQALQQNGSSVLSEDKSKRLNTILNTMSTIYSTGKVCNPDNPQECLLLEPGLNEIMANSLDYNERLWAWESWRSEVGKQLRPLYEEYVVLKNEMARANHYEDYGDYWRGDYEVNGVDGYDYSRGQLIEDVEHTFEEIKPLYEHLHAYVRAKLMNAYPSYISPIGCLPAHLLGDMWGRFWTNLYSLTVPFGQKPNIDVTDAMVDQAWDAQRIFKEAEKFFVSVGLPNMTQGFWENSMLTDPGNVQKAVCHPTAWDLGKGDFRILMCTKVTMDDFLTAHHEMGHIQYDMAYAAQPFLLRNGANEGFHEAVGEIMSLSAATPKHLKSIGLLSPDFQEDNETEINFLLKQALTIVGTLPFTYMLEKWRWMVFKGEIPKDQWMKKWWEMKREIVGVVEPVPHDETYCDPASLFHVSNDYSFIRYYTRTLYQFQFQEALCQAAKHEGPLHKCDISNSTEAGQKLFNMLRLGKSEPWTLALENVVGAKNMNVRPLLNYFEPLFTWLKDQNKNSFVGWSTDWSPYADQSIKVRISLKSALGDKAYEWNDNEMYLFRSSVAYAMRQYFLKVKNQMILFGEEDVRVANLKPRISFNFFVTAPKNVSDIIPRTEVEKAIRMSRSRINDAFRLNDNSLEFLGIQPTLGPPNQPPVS

[2] = test system: SARS-CoV-2 USA-WA1/2020 virus; assay type: cell-based
[3] = test system: SARS-CoV-2-infected permissive cell lines (Vero E6, Huh-7.5, A549 ACE2+, HT1080 ACE2+)

Compound | Active (Y or N) [1] | other results
C=Cc1c(C)c2cc3nc(c4c5[nH]c(cc6nc(cc1[nH]2)C(C)=C6CC)c(C)c5C(=O)[C@@H]4C(=O)OC)[C@@H](CCC(=O)O)[C@@H]3C [Pheophorbide A] | Y | IC50 [1]: 0.5 µM; inhibition of the binding of SARS-CoV-2 Spike protein to ACE2 (in words) [1]: dose dependent decrease in binding; also recorded: dose-dependent inhibition; antiviral activity under light exposure versus dark [2]: generally improved; antiviral activity without photoactivation [2]: exhibit antiviral activity in the dark; antiviral effect with pre-treatment versus treatment after infection [2]: more pronounced; inhibition of SARS-CoV-2 infection in culture [2]: significantly inhibits; toxicity to the infected cells relative to antiviral doses [3]: antiviral activity was detected at doses lower than the dosing where pheophorbide A was toxic
Coproporphyrin III | N | –
Verteporfin | Y | IC50 ([1]; read-out: IC50): 0.225 µM
C=Cc1c(C)c2cc3nc(c4c5[n-]c(cc6nc(cc1[n-]2)C(C)=C6CC)c(C)c5C(=O)[C@@H]4C(=O)OC)[C@@H](CCC(=O)OC/C=C(\C)CCC[C@H](C)CCC[C@H](C)CCCC(C)C)[C@@H]3C.[Mg+2] [Chlorophyll A] | N | –
C1=Cc2cc3ccc(cc4nc(cc5ccc(cc1n2)[nH]5)C=C4)[nH]3 [Porphine] | N | –
N-Methyl Protoporphyrin | N | –
N-Methyl Mesoporphyrin | N | –
C1=Cc2nc1cc1ccc([nH]1)c(-c1ccccc1)c1nc(cc3ccc([nH]3)c2-c2ccccc2)C=C1 [5,15-diphenyl-21H,23H-porphine] | N | –
C[n+]1ccc(-c2c3nc(c(-c4cc[n+](C)cc4)c4ccc([nH]4)c(-c4cc[n+](C)cc4)c4ccc([nH]4)c(-c4cc[n+](C)cc4)c4nc2C=C4)C=C3)cc1 [TmPyP4] | N | –
Vitamin B12 | N | inhibition of the binding of SARS-CoV-2 Spike protein to ACE2 (in words) [1]: non-active
C=Cc1c(C)c2cc3nc(c4c5[n-]c(cc6nc(cc1[n-]2)C(C=O)=C6CC)c(C)c5C(=O)[C@@H]4C(=O)OC)[C@@H](CCC(=O)OC/C=C(\C)CCC[C@H](C)CCC[C@H](C)CCCC(C)C)[C@@H]3C.[Mg+2] [Chlorophyll B] | N | –
MnTBAP | N | –
C=Cc1c(C)c2cc3nc(c(CC(=O)O)c4[nH]c(cc5nc(cc1[nH]2)C(C)=C5CC)c(C)c4C(=O)O)[C@@H](CCC(=O)O)[C@@H]3C [Chlorin E6] | Y (weak) | IC50 ([1]; read-out: IC50): 5 µM
C=CC1=C(C)c2cc3[nH]c(cc4nc(cc5[nH]c(cc1n2)c(C)c5CCC(=O)O)C(CCC(=O)O)=C4C)c(C)c3C=C [Protoporphyrin IX] | – | IC50 [1]: 1.2 µM
